Values after ≈ are worked out from the molar mass of the structure shown. Where two headings read alike, the source gives them in different places.
System: Pseudoperonospora cubensis (P. cubensis)
Experiment: Greenhouse fungicidal activity, potted cucumber, downy mildew
Format: in vivo
Description: For a further validation, the controlling efficacy of compound 18 against downy mildew and powdery mildew disease was tested in greenhouse and field models.
The fungicidal activity of compound 18 against P. cubensis and S. fuliginea was evaluated according to a previously published method[30] and a potted-plant test method was adopted. […]
Greenhouse Fungicidal Activity
The fungicidal activity of compound 18 against P. cubensis and S. fuliginea was evaluated according to a previously published method 17 and a potted-plant test method was adopted. Commercial fungicide AZ was evaluated as a control under the same conditions.
Cucumber seeds were soaked in water for 2 h at 50℃ and then were kept moist for 24 h at 28℃ in an incubator. When the radicles grew to 0.5 cm, the seeds were grown in plastic pots containing a 1:1 (v/v) mixture of vermiculite and peat. At the stage of two leaves, all of the cucumber plants used for inoculations were divided into two groups to test for protective and curative effects. In the protective action, compound 18 and commercial fungicide AZ were sprayed on the leaves before the inoculation. However, the fungal inoculation and chemical spraying are reverse in the […] action.
In the protective action, compound 18 and commercial fungicide AZ were sprayed with a hand spray on the surface of the seed leaves at concentrations of 200, 100, 50, 25, 12.5, 6.25, 3.125, 1.5625 mg/L. After 2 h, inoculations of P. cubensis and S. fuliginea were carried out by spraying a conidial suspension (concentration […]), which was repeated 4 times.
After inoculation, the cucumber seedlings were cultured in a culture room at 25±2℃, 70%~80% relative humidity, and 16L:8D photoperiod for 8 d. In the curative action, the fungal inoculation and chemical spraying were reversed with the protective action. Foliar spray with fungicides to inoculated cucumber plants (before disease expression) till near-run-oﬀ was made on the 7th and 15th day after emergence. The fungicidal activity was evaluated when the nontreated cucumber plant fully developed symptoms. The area of inoculated and treated leaves covered by disease symptoms was assessed and compared to that of nontreated ones to determine the average disease index.
The disease range (i) was visually evaluated on the […]rst true leaf and ranked as a percentage infected area using a rating of 0, 1, 3, 5, 7, or 9, denoting proportions of disease over the whole leaf area of 0%, < 5%, 6–10%, 11–25%, 26–50%, and > 50%, respectively 18.
The disease index and control effect of compound 18 were calculated via the following […]
Disease index (%) = ∑(Ni × i)/(N × 9) × 100 […]

| SMILES | EC90 (greenhouse, cucumber, sprayed after inoculation, read-out: curative EC90 against P. cubensis) | EC90 (greenhouse, cucumber, sprayed before inoculation, read-out: protective EC90 against P. cubensis) | EC90 (read-out: curative EC90 against P. cubensis) | EC90 (read-out: protective EC90 against P. cubensis) |
| --- | --- | --- | --- | --- |
| CO/C=C(/C(=O)OC)c1ccccc1Oc1cc(Oc2ccccc2C#N)ncn1 [AZ, Azoxystrobin, reference compound] | 50.7 µg/mL (≈ 126 µM) | 5.36 µg/mL (≈ 13.3 µM) | – | – |
| COC=C(C(=O)OC)c1ccccc1CSc1nc2cc(OC)ccc2s1 [Compound 18] | – | – | 120 µg/mL (≈ 300 µM) | 4.29 µg/mL (≈ 10.7 µM) |

From publication PMC4549706, “Rational Design of Highly Potent and Slow-Binding Cytochrome bc1 Inhibitor as Fungicide by Computational Substitution Optimization” (Scientific Reports, 2015)
